{"source": "patent US20240368667A1", "about": "“RAPID, LABEL-FREE ANTIBIOTIC SUSCEPTIBILITY OF BACTERIA DIRECTLY FROM POSITIVE BLOOD OR BODILY FLUID/CULTURE” (priority 2021, published 2024)", "key": {"P. aeruginosa 77": {"tested_on": "P. aeruginosa 77", "test": "Microbroth dilution MIC with and without sucrose recovery", "type": "cell-based, Pseudomonas aeruginosa", "conditions": "MIC given as multiple of S/I/R", "method": "(§1) Microbroth dilution for minimum inhibitory concentrations (MIC) with and without sucrose recovery. To isolate bacteria without sucrose, culture media from positive BacT/alert FA PLUS aerobic culture bottles (bioMérieux, Durham, NC) was serially diluted and plated onto LB agar (Lennox; Sigma-Aldrich, St. Louis, MO). Bacterial suspensions were prepared by resuspending colonies in CAMHB with incubation on a MaxQ 4000 incubator shaker (Thermo Fisher Scientific, Waltham, MA) at 37° C. and ˜225 rpm for 3 hours. Bacteria recovered via Method 2 were diluted 10-fold in CAMHB. Following incubation or sucrose recovery and dilution, bacterial suspensions were adjusted to ˜0.004 OD600 with CAMHB and a 50-μL aliquot distributed to each well of a 96-well plate containing CAMHB with and without clinically relevant antibiotics (2-fold dilution series). Gram-negative plates included: ceftazidime (3rd generation cephalosporin, RPI corp., Mount Prospect, IL), cefepime (4th generation cephalosporin, Chem-Impex Int'l, Wood Dale, IL), meropenem (carbapenem, Tokyo Chemical Industry, Tokyo, Japan), levofloxacin (quinolone, Alfa Aesar, Haverhill, MA), and tobramycin (aminoglycoside, MP Biomedicals LLC, Santa Ana, CA), while S. aureus plates contained: oxacillin (beta-lactam, Sigma-Aldrich, St. Louis, MO), vancomycin (glycopeptide, Santa Cruz Biotechnology, Dallas, TX), erythromycin (macrolide, Sigma-Aldrich, St. Louis, MO), clindamycin ([…]), and ciprofloxacin (fluoroquinolone, Sigma-Aldrich, St. Louis, MO). Antibiotic plates were incubated at 37° C. for 16-20 hours (gram-negative) or 35° C. for 24 hours (S. aureus), at which time, plates were removed from the incubator and visually inspected for bacterial growth. The MIC was set at the lowest antibiotic concentration at which no growth was detected.\nInfluence of Sucrose on Bacterial MIC. To rule out the potential effect of sucrose exposure in bacterial antibiotic susceptibility, microbroth dilution studies were performed on bacteria recovered using standard practices (i.e. plating following positive blood culture) and through selective lysis coupled with centrifugation through the sucrose cushion (Method 2)."}, "E. coli [1]": {"tested_on": "E. coli", "test": "Direct flow cytometric AST (high-throughput flow cytometry, HTFC) of sucrose-recovered bacteria", "type": "cell-based, Escherichia coli", "parameters": "key to susceptibility classification, HTFC: (S) sensitive; (I) intermediate; (R) resistant", "conditions": "for susceptibility classification, HTFC / MIC: sucrose-recovered, antibiotic 4 hours (37° C.); for MIC: Escherichia coli, 4 h, read-out: Minimum inhibitory concentration, HTFC", "method": "(§2) AST workflow using bacteria recovered directly from positive blood culture. A 1-mL aliquot of bacteria recovered using separation method 2 was diluted 10-fold in CAMHB, the OD600 adjusted to ˜0.01, and a 50 μL aliquot distributed into each well of a 96-well plate containing CAMHB with and without ceftazidime, tobramycin, and either meropenem (E. coli and P. aeruginosa) or oxacillin (S. aureus). Following Clinical and Laboratory Standards Institute (CLSI) guidelines^33, 2% sodium chloride (NaCl) was present in wells containing oxacillin to assist in the detection of methicillin-resistant S. aureus (MRSA). […] To account for observed differences in doubling and lag times, E. coli and P. aeruginosa were incubated for 4 hours at 37° C., while S. aureus was incubated for 9 hours at 35° C. After incubation, antibiotic plates were removed from the incubator and directly stored on ice (i.e. no post-processing) until high-throughput flow cytometry (BD LSRFortessa with HTS-system, BD, Franklin Lakes, NJ). No-antibiotic controls and antibiotic-treated samples were handled identically.\n(§3) MIC Determination by flow cytometry. Because antibiotic effects are observed in both the position of scatter signatures (morphology changes) and count rates (growth inhibition), a modified count rate, accounting for scatter position, was used to evaluate susceptibility. Briefly, no-antibiotic control populations (triplicate) were pooled, binned, and a convex hull boundary set at 1-standard deviation above the background (not including bins with zero counts) was drawn. […] The overlap ratio, measuring changes in morphology, was then computed by dividing the number of sample events within the no-antibiotic control boundary by the total number of events within the sample. As an increase in count rate attributed to viable bacteria in antibiotic-treated samples is not scientifically meaningful, the fractional overlap was multiplied by the minimum of the control and sample count rates to generate a modified count rate accounting for antibiotic-induced morphological changes. All modified count rates were normalized by the average of the no-antibiotic controls. For automatic MIC determination, normalized count rates corresponding to n (index of predicted MIC), n+1, n+2 were iteratively fit to a linear function with a frameshift of n+1 between iterations (FIGS. 8 and 9). […] A threshold of −0.01 instead of zero was used to mitigate the influence of small fluctuations in normalized count rates on susceptibility determinations."}, "E. coli [2]": {"tested_on": "E. coli", "test": "Broth microdilution (BMD) MIC", "type": "cell-based, Escherichia coli", "parameters": "key to susceptibility classification, BMD: (S) sensitive; (I) intermediate; (R) resistant", "conditions": "for MIC: Escherichia coli", "method": "as §1"}, "P. aeruginosa": {"tested_on": "P. aeruginosa", "test": "Direct flow cytometric AST (high-throughput flow cytometry, HTFC) of sucrose-recovered bacteria", "type": "cell-based, Pseudomonas aeruginosa", "parameters": "key to susceptibility classification, HTFC: (S) sensitive; (I) intermediate; (R) resistant", "conditions": "for MIC: Pseudomonas aeruginosa, read-out: Minimum inhibitory concentration, HTFC", "method": "as §2, §3"}}, "note": "Like-named read-outs stand apart in the source and are kept apart here."}
{"smiles": "NC[C@H]1O[C@H](O[C@H]2[C@H](O)[C@@H](O[C@H]3O[C@H](CO)[C@@H](O)[C@H](N)[C@H]3O)[C@H](N)C[C@@H]2N)[C@H](N)C[C@@H]1O", "note": "[Tobramycin, tobramycin]", "values": [{"measurement": "minimum inhibitory concentration (MIC), Standard", "setting": "P. aeruginosa 77; P. aeruginosa 77 recovered by standard plating", "value": "⅛S"}, {"measurement": "minimum inhibitory concentration (MIC), Sucrose", "setting": "P. aeruginosa 77; P. aeruginosa 77 recovered through sucrose (Method 2)", "value": "⅛S"}, {"measurement": "susceptibility classification, HTFC", "setting": "E. coli [1]; E. coli Blood Culture A", "value": "(S)"}, {"measurement": "susceptibility classification, HTFC", "setting": "E. coli [1]; E. coli Blood Culture B", "value": "(S)"}, {"measurement": "susceptibility classification, HTFC", "setting": "E. coli [1]; E. coli EC37", "value": "(S)"}, {"measurement": "susceptibility classification, HTFC", "setting": "E. coli [1]; E. coli EC-bank", "value": "(S)"}, {"measurement": "susceptibility classification, HTFC", "setting": "E. coli [1]; E. coli Mu76", "value": "(S)"}, {"measurement": "susceptibility classification, HTFC", "setting": "E. coli [1]; E. coli Mu218", "value": "(R)"}, {"measurement": "susceptibility classification, HTFC", "setting": "E. coli [1]; E. coli Mu890", "value": "(S)"}, {"measurement": "flow cytometric count rate", "setting": "E. coli [1]; E. coli, strain not named (FIG. 14), concentrations ≥0.25 μg/mL, no-antibiotic control ~11,000 evts/s", "value": "≥ 100", "unit": "evts/s"}, {"measurement": "MIC", "setting": "E. coli [1]; E. coli Blood Culture A", "value": 0.25, "unit": "µg/mL"}, {"measurement": "MIC", "setting": "E. coli [1]; E. coli Blood Culture B", "value": 4, "unit": "µg/mL"}, {"measurement": "MIC", "setting": "E. coli [1]; E. coli EC37", "value": 0.25, "unit": "µg/mL"}, {"measurement": "MIC", "setting": "E. coli [1]; E. coli EC-bank", "value": "≤ 0.125", "unit": "µg/mL"}, {"measurement": "MIC", "setting": "E. coli [1]; E. coli Mu76", "value": 0.5, "unit": "µg/mL"}, {"measurement": "MIC", "setting": "E. coli [1]; E. coli Mu218", "value": 16, "unit": "µg/mL"}, {"measurement": "MIC", "setting": "E. coli [1]; E. coli Mu890", "value": 0.5, "unit": "µg/mL"}, {"measurement": "susceptibility classification, BMD", "setting": "E. coli [2]; E. coli Blood Culture A, broth microdilution", "value": "(S)"}, {"measurement": "susceptibility classification, BMD", "setting": "E. coli [2]; E. coli Blood Culture B, broth microdilution", "value": "(I)"}, {"measurement": "susceptibility classification, BMD", "setting": "E. coli [2]; E. coli EC37, broth microdilution", "value": "(S)"}, {"measurement": "susceptibility classification, BMD", "setting": "E. coli [2]; E. coli EC-bank, broth microdilution", "value": "(S)"}, {"measurement": "susceptibility classification, BMD", "setting": "E. coli [2]; E. coli Mu76, broth microdilution", "value": "(S)"}, {"measurement": "susceptibility classification, BMD", "setting": "E. coli [2]; E. coli Mu218, broth microdilution", "value": "(R)"}, {"measurement": "susceptibility classification, BMD", "setting": "E. coli [2]; E. coli Mu890, broth microdilution", "value": "(S)"}, {"measurement": "MIC", "setting": "E. coli [2]; E. coli Blood Culture A, broth microdilution, read-out: Minimum inhibitory concentration, BMD", "value": 1, "unit": "µg/mL"}, {"measurement": "MIC", "setting": "E. coli [2]; E. coli Blood Culture B, broth microdilution, read-out: Minimum inhibitory concentration, BMD", "value": 8, "unit": "µg/mL"}, {"measurement": "MIC", "setting": "E. coli [2]; E. coli EC37, broth microdilution, read-out: Minimum inhibitory concentration, BMD", "value": 0.25, "unit": "µg/mL"}, {"measurement": "MIC", "setting": "E. coli [2]; E. coli EC-bank, broth microdilution, read-out: Minimum inhibitory concentration, BMD", "value": 0.5, "unit": "µg/mL"}, {"measurement": "MIC", "setting": "E. coli [2]; E. coli Mu76, broth microdilution, read-out: Minimum inhibitory concentration, BMD", "value": 0.5, "unit": "µg/mL"}, {"measurement": "MIC", "setting": "E. coli [2]; E. coli Mu218, broth microdilution, read-out: Minimum inhibitory concentration, BMD", "value": 32, "unit": "µg/mL"}, {"measurement": "MIC", "setting": "E. coli [2]; E. coli Mu890, broth microdilution, read-out: Minimum inhibitory concentration, BMD", "value": 0.5, "unit": "µg/mL"}, {"measurement": "MIC", "setting": "E. coli [2]; E. coli, strain not named (FIG. 14), read-out: MIC as determined by BMD", "value": 0.25, "unit": "µg/mL"}, {"measurement": "susceptibility classification, HTFC", "setting": "P. aeruginosa; P. aeruginosa Blood Culture B, antibiotic 4 hours (37° C.)", "value": "(S)"}, {"measurement": "susceptibility classification, HTFC", "setting": "P. aeruginosa; P. aeruginosa Blood Culture C, antibiotic 4 hours (37° C.)", "value": "S"}, {"measurement": "susceptibility classification, HTFC", "setting": "P. aeruginosa; P. aeruginosa PA7, antibiotic 4 hours (37° C.)", "value": "(R)"}, {"measurement": "susceptibility classification, HTFC", "setting": "P. aeruginosa; P. aeruginosa PA46, antibiotic 4 hours (37° C.)", "value": "(S)"}, {"measurement": "susceptibility classification, HTFC", "setting": "P. aeruginosa; P. aeruginosa PA49, antibiotic 4 hours (37° C.)", "value": "(S)"}, {"measurement": "susceptibility classification, HTFC", "setting": "P. aeruginosa; P. aeruginosa PA81, antibiotic 4 hours (37° C.)", "value": "(S)"}, {"measurement": "susceptibility classification, HTFC", "setting": "P. aeruginosa; P. aeruginosa PAO1, antibiotic 4 hours (37° C.)", "value": "(S)"}, {"measurement": "MIC", "setting": "P. aeruginosa; 4 h, P. aeruginosa Blood Culture B, antibiotic 4 hours (37° C.)", "value": 0.25, "unit": "µg/mL"}, {"measurement": "MIC", "setting": "P. aeruginosa; 4 h, P. aeruginosa PA7, antibiotic 4 hours (37° C.)", "value": "> 16", "unit": "µg/mL"}, {"measurement": "MIC", "setting": "P. aeruginosa; 4 h, P. aeruginosa PA46, antibiotic 4 hours (37° C.)", "value": 1, "unit": "µg/mL"}, {"measurement": "MIC", "setting": "P. aeruginosa; 4 h, P. aeruginosa PA49, antibiotic 4 hours (37° C.)", "value": 1, "unit": "µg/mL"}, {"measurement": "MIC", "setting": "P. aeruginosa; 4 h, P. aeruginosa PA81, antibiotic 4 hours (37° C.)", "value": 1, "unit": "µg/mL"}, {"measurement": "MIC", "setting": "P. aeruginosa; PAO1, 4 h, P. aeruginosa PAO1, antibiotic 4 hours (37° C.)", "value": 2, "unit": "µg/mL"}]}
